Legend:
HAT = target: T1, HAT (Homo sapiens, UniProt O60235); experiment: Enzyme kinetic determination of inhibition of HAT (Ki, Dixon method, fluorogenic substrate d-Cyclohexylalanin-Pro-Arg-7-Aminomethylcoumarin); format: biochemical; conditions: HAT (R&D Systems), Tris pH 9.5, room temperature
T1 construct: purchased R&D Systems
T1 sequence (O60235 1-418): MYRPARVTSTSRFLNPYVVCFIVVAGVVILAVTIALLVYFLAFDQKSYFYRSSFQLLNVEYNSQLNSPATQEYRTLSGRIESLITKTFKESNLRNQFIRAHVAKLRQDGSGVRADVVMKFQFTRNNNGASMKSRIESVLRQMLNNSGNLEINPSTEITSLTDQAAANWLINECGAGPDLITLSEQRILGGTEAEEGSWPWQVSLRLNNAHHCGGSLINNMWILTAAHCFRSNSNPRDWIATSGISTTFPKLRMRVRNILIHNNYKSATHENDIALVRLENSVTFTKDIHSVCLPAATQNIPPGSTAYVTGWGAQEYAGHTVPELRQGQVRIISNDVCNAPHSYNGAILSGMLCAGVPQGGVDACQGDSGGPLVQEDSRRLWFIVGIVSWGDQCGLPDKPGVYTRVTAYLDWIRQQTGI
Text: (§1) Die Hemmwirkung der Inhibitoren für HAT (R&D Systems) und TMPRSS2 (katalytische Domäne exprimiert in E. coli) wurden unter Verwendung chromogener Substrate ermittelt. Für HAT wurde d-Cyclohexylalanin-Pro-Arg-7-Aminomethylcoumarin und für TMPRSS2 d-Cyclohexylalanin-Gly-Arg-p-Nitroanilin als Substrat verwendet. Die Bestimmung wurde mit einem Fluoreszenz-Plattenreader Safire^2 der Firma Tecan (λEx = 380 nm, λEm = 460 nm) für HAT und mit einem UV/Vis Plattenreader iEMS Reader MF 1401 der Firma LABSYSTEMS für TMPRSS2 bei 405 nm durchgeführt. Die Messung erfolgte in Tris-Puffer (50 mM Tris pH 9.5, 0,05% Brij 58 und 1 mg/ml bovines serum Albumin für HAT und 50 mM Tris pH 8.0, 0,154 M NaCl für TMPRSS2) auf Mikrotiter Platten bei Raumtemperatur. Die Inhibitorlösungen geeigneter Konzentration wurden in DMSO hergestellt. Im Messansatz wurden zu 2 µl Inhibitorlösung unterschiedlicher Konzentration jeweils 158 µl Puffer und 20 µl Substratlösung geben, und danach die Reaktion durch Zugabe von 20 µl Enzymlösung gestartet. Jeder Inhibitor wurde mit drei verschiedenen Substratkonzentrationen vermessen (50 µM, 100 µM, 200 µM für HAT und 45 µM, 90 µM und 181 µM für TMPRSS2). Die Inhibitorkonzentration wurde mindestens um den Bereich einer Größenordnung variiert und jeweils die steady-state Geschwindigkeit bestimmt. Die Berechnung der Ki-Werte erfolgte mit Hilfe eines Computerprogramms nach der Methode von Dixon.

TMPRSS2 = target: T2, TMPRSS2 (Homo sapiens, UniProt O15393); experiment: Enzyme kinetic determination of inhibition of TMPRSS2 (Ki, Dixon method, chromogenic substrate d-Cyclohexylalanin-Gly-Arg-p-Nitroanilin); format: biochemical; conditions: TMPRSS2 catalytic domain expressed in E. coli, Tris pH 8.0, room temperature
T2 construct: TMPRSS2 (katalytische Domäne exprimiert in E. coli); made in house; host or cells: E. coli
T2 sequence (O15393 256-492 limits assumed): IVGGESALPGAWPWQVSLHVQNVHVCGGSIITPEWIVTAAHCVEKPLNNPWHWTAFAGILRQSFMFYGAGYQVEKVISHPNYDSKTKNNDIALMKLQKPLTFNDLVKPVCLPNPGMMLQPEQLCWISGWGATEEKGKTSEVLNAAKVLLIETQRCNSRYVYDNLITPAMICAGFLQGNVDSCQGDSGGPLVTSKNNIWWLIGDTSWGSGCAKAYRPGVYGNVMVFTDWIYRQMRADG
Text: as §1

HAT-Flag = target: T3, HAT-Flag (Homo sapiens, UniProt O60235); experiment: Inhibition of affinity-purified HAT-Flag: cleavage of the substrate Boc-Leu-Gly-Arg-AMC; format: biochemical; conditions: 25 µM Boc-Leu-Gly-Arg-AMC, 2 h, 37° C, pH 7,4
T3 construct: made in house; host or cells: MDCK-HAT cells (MDCK stably transfected with pcEFTet-On/NEO and pTRE2pur-HAT-FLAG, doxycycline-inducible); isolated with the FLAG Tagged Protein Immunoprecipitation Kit
T3 sequence (O60235 1-418): T1 sequence (O60235 1-418)
Text: Die in MDCK-HAT-Zellen exprimierte Protease HAT besitzt zusätzlich ein C-terminales Flag-Epitop, welches die Affinitätsreinigung der Protease mit Hilfe von anti-FlagM2-Agarose (Sigma-Aldrich) ermöglicht. HAT-Flag liegt nach der Immunpräzipitation als aktive Protease vor. Die enzymatische Aktivität kann mit Hilfe des Fluoreszenzsubstrats Boc-Leu-Gly-Arg-AMC bestimmt werden.
Für Inhibitionsstudien wurde HAT-Flag zunächst mit Hilfe des FLAG®Tagged Protein Immunoprecipitation Kits aus MDCK-HAT-Zellen isoliert. Anschließend wurde die isolierte Protease mit 25 µM Boc-Leu-Gly-Arg-AMC in 50 mM Tris/HCl pH 7,4 in An- oder Abwesenheit der Inhibitoren (Endkonzentrationen 0,1 -10 µM) für 2 h bei 37° C inkubiert. Die Umsetzung des Substrates wurde mit Hilfe eines Fluoreszenz-Spektralphotomers bei 350 nm (Extinktion) sowie 460 nm (Emission) bestimmt. Als Kontrolle diente die Bestimmung der Proteaseaktivität in Abwesenheit eines Inhibitors (entspricht 0% Hemmung). Tabelle 2: Hemmwirkung synthetischer Serinproteasehemmstoffe auf die HAT-katalysierte Spaltung des Substrats Boc-Leu-Gly-Arg-AMC.

[1] = test system: Influenzavirus-Isolat A/Memphis/14/96 (H1N1); format: cell-based; conditions: Calu-3-Zellen (endogenous TMPRSS2), 24 h infection

Row | SMILES | Ki (HAT) [nM] | also measured
1 | N=C(N)NCCC[C@@H](NS(=O)(=O)Cc1ccccc1)C(=O)N1CCC[C@H]1C(=O)NCc1ccc(C(=N)N)cc1 [Inhibitor 1] | 19 | Ki (TMPRSS2): 3 nM; Prozent Hemmung (%) (HAT-Flag; Inhibitorkonzentration 0,1 µM): 22,3%; Prozent Hemmung (%) (HAT-Flag; Inhibitorkonzentration 1 µM): 70,7%; Prozent Hemmung (%) (HAT-Flag; Inhibitorkonzentration 10 µM): 93,1%; Reduktion der Virusausbreitung [1]: konzentrationsabhängige Reduktion der Virusausbreitung
2 | N=C(N)c1ccc(CNC(=O)CNC(=O)[C@@H](CCCN=C(N)N)NS(=O)(=O)Cc2ccccc2)cc1 [Inhibitor 2] | 279 | –
3 | N=C(N)c1ccc(CNC(=O)[C@H](CO)NC(=O)[C@@H](CO)NS(=O)(=O)Cc2ccccc2)cc1 [Inhibitor 3] | 78 | Prozent Hemmung (%) (HAT-Flag; Inhibitorkonzentration 0,1 µM): 29,5%; Prozent Hemmung (%) (HAT-Flag; Inhibitorkonzentration 1 µM): 47,1%; Prozent Hemmung (%) (HAT-Flag; Inhibitorkonzentration 10 µM): 80,3%; Reduktion der Virusausbreitung [1]: konzentrationsabhängige Reduktion der Virusausbreitung
4 | N=C(N)c1ccc(CNC(=O)[C@H](CCCCNC(=O)OCc2ccccc2)NC(=O)[C@@H](CO)NS(=O)(=O)Cc2ccccc2)cc1 [Inhibitor 4] | 48 | –
5 | N=C(N)c1ccc(CNC(=O)[C@@H]2CCCN2C(=O)[C@@H](CC2CCCCC2)NS(=O)(=O)Cc2ccccc2)cc1 [Inhibitor 5] | 77 | Ki (TMPRSS2): 81 nM; Prozent Hemmung (%) (HAT-Flag; Inhibitorkonzentration 0,1 µM): 27%; Prozent Hemmung (%) (HAT-Flag; Inhibitorkonzentration 1 µM): 47,4%; Prozent Hemmung (%) (HAT-Flag; Inhibitorkonzentration 10 µM): 51,5%
6 | [H]/N=C(\N)c1ccc(CNC(=O)[C@@H]2CCCN2C(=O)[C@@H](Cc2ccccc2)NS(=O)(=O)Cc2ccccc2)cc1 [Inhibitor 6] | 66 | –
7 | N=C(N)c1ccc(CNC(=O)[C@@H]2CCCN2C(=O)[C@@H](CCc2ccccc2)NS(=O)(=O)Cc2ccccc2)cc1 [Inhibitor 7] | 55 | –
8 | N=C(N)c1ccc(CNC(=O)[C@@H]2CCCN2C(=O)[C@@H](CCCCNC(=O)OCc2ccccc2)NS(=O)(=O)Cc2ccccc2)cc1 [Inhibitor 8] | 49 | –
9 | N=C(N)c1ccc(CNC(=O)[C@@H]2CCCN2C(=O)[C@@H](CCCCN)NS(=O)(=O)Cc2ccccc2)cc1 [Inhibitor 9] | 30 | –
10 | N=C(N)NCCCC[C@@H](NS(=O)(=O)Cc1ccccc1)C(=O)N1CCC[C@H]1C(=O)NCc1ccc(C(=N)N)cc1 [Inhibitor 10] | 13 | –
11 | N=C(N)c1ccc(CNC(=O)[C@@H]2CCCN2C(=O)C(CCc2ccccn2)NS(=O)(=O)Cc2ccccc2)cc1 (stereo partly shown) [Inhibitor 11] | 32 | –
12 | N#Cc1ccc(C[C@@H](NS(=O)(=O)Cc2ccccc2)C(=O)N2CCC[C@H]2C(=O)NCc2ccc(C(=N)N)cc2)cc1 [Inhibitor 12] | 210 | –
13 | CCCCCCCCCC(=O)NCCCC[C@H](NC(=O)[C@@H](CCCNC(=N)N)NS(=O)(=O)Cc1ccccc1)C(=O)NCc1ccc(C(=N)N)cc1 [Inhibitor 14] | 160 | Ki (TMPRSS2): 8 nM
14 | N=C(N)c1ccc(CNC(=O)CNC(=O)[C@@H](CO)NS(=O)(=O)Cc2ccccc2)cc1 [Inhibitor 15] | 1840 | –
15 | CCCCCCCCCC(=O)NCCCC[C@H](NC(=O)[C@@H](CC1CCCCC1)NS(=O)(=O)Cc1ccccc1)C(=O)NCc1ccc(C(=N)N)cc1 [Inhibitor 16] | > 20000 | –
16 | N=C(N)c1ccc(CNC(=O)[C@H](CCCCNC(=O)OCc2ccccc2)NC(=O)[C@@H](CC2CCCCC2)NS(=O)(=O)Cc2ccccc2)cc1 [Inhibitor 17] | 488 | Ki (TMPRSS2): 84 nM
